In patent US12448705B2, “Bacteriophage compositions and methods of selection of components against specific bacteria” (priority 2016, dated 2025):
In brackets after ≈: the same amount, converted by molar mass.

Assays:
Assay type in all cases: cell-based
[1] = tested on: meropenem^R K. pneumoniae 4640; experiment: Phage efficacy assay with meropenem and phage; settings: alone; meropenem 4 μg/ml; phage MOI 100; 48 hours at 37° C.
Experimental: The assay is based on the interaction between lytic phage and bacteria in a liquid environment. In this liquid assay system, tetrazolium dye is added with media. During active growth of bacteria, cellular respiration reduces the tetrazolium dye and produces a color change that is captured by a camera. In this system as many as 400 phage efficacy assays in the presence of a targeted bacterium can be performed simultaneously but separately, thus allowing monitoring of the kinetics of bacterial growth and the development of resistance over the course of the experiment. The interpretation of such phage-bacterial interaction data in liquid environment permits the selection of phages that are highly virulent against the given bacteria, evidenced by a hold-time of at least 4 hours. Further selection of these phages for cocktail preparation is evaluated using the same liquid assay in the presence of various mixtures of these virulent phages.
Using the phage efficacy assay described in Example 1, 10^4 cfu of meropenem^R K. pneumoniae was grown at 37° C. for 48 hours in the following conditions: (a) alone; (b) meropenem or phage (MOI 100); and (c) meropenem and varying MOIs of phage (MOI 0.01-100). The concentration of meropenem used for the indicated cultures was 4 μg/ml. […] The readout of this assay is bacterial growth hold-time.

A. baumannii strain TP3 [2] = experiment: Checkerboard assay, phage cocktail and minocycline; settings: Acinetobacter baumannii, TP3, read-out: Minimal Inhibition Concentration (MIC)
A. baumannii strain TP3 [3] = experiment: Minocycline ETEST; settings: Acinetobacter baumannii, TP3, read-out: IC50 of A. baumannii strain TP3 to minocycline by ETEST
Experimental: For example, this assay was performed in order to better understand the interaction between the phage cocktail and minocycline administered in combination to the patient discussed in Example 5. Specifically, each well of a 96 well plate contained tryptic soy media with 1% tetrazolium dye (v/v) for bacterial growth media. […] The wells with antibiotics were then serially diluted 1:1 from row A down to row F. Phage were then added to each well starting at 10^7 pfu per well in column 1 and then serially diluted 1:10 across from column 1 to 6. All wells were then inoculated with approximately 10^4 cfu of bacteria per well. This design allows for antibiotic dilutions going down the columns and dilutions of phage going across the rows. Columns 7 and 8 represent antibiotic control wells and rows G and H represent phage control wells. However, wells G7, G8, H7, and H8 represent bacteria only control wells. […] The IC50 of A. baumannii strain TP3 to minocycline by ETEST (bioMerieux USA, Durham, NC) was 4 μg/mL.

A. baumannii isolate = experiment: Minocycline susceptibility of patient's isolate; settings: day 115, previously obtained isolate
[4] = tested on: vancomycin-resistant E. faecalis (VRE); experiment: microbe, parasite or virus in culture
Experimental: A culture of VRE was first grown in tryptic soy broth (Remel Cat #R455054) to an Optical Density (OD) of 0.5 at 600 nm. Tryptic soy with tetrazolium dye D (BioLog Cat #74224) was added to a 1% v/v ratio and then sterilized through a 0.22 μm filtration unit (Millipore Cat #SCGP00525). VRE stock phage was serially diluted in tryptic soy broth with dye in separate Eppendorf tubes to a final concentration of 10^7 pfu/ml. Vancomycin (Sigma, Cat #SBR00001-10 ml) was diluted separately in tryptic soy broth with tetrazolium dye to a concentration equal to 4 times the Minimal Inhibition Concentration (MIC) for the bacteria being used.
Briefly, microtiter plates for the phage-antibiotics synergy assay were prepared as follows. Tryptic soy broth with dye was added to the plate first. Next 50 μl of tryptic soy with tetrazolium dye was added to each well. […] The wells with Vancomycin were serially diluted 1:1 from row A down to row F. Phage were added to each well starting at 10^7 pfu/well in column 1 and then serially diluted 1:10 across from column 1 to 6. Individual phage was added at an MOI of 100. Finally all wells were inoculated with approximately 10^4 cfu of E. faecalis bacteria per well. […] The color change of all plates was recorded every 15 minutes over the course of the 48 hour incubation period.

Compound: C[C@@H](O)[C@H]1C(=O)N2C(C(=O)O)=C(S[C@@H]3CN[C@H](C(=O)N(C)C)C3)[C@H](C)[C@H]12 [meropenem]
- hold-time [1]: approximately 6 hours

Compound: CN(C)c1ccc(O)c2c1C[C@H]1C[C@H]3[C@H](N(C)C)C(O)=C(C(N)=O)C(=O)[C@@]3(O)C(O)=C1C2=O [minocycline]
- MIC (A. baumannii strain TP3 [2]): 32 µg/mL
- IC50 (A. baumannii strain TP3 [3]): 4 µg/mL
- concentration at which isolate found susceptible (A. baumannii isolate): 3 µg/mL

Compound: CN[C@H](CC(C)C)C(=O)N[C@H]1C(=O)N[C@@H](CC(N)=O)C(=O)N[C@H]2C(=O)N[C@H]3C(=O)N[C@H](C(=O)N[C@H](C(=O)O)c4cc(O)cc(O)c4-c4cc3ccc4O)[C@H](O)c3ccc(c(Cl)c3)Oc3cc2cc(c3O[C@@H]2O[C@H](CO)[C@@H](O)[C@H](O)[C@H]2O[C@H]2C[C@](C)(N)[C@H](O)[C@H](C)O2)Oc2ccc(cc2Cl)[C@H]1O [Vancomycin]
- delay of bacterial growth ([4]; 10^4 cfu per well, phage MOI of 100, vancomycin 16 μg/ml, 48 hours at 37° C., FIG. 25): up to 18 hours
- MIC ([4]; Enterococcus faecalis, VRE, read-out: minimal inhibitory concentration for E. faecalis): 16 µg/mL (≈ 11 µM)
